According to patent US20230134428A1, “FUSED HETEROARYL COMPOUNDS, AND METHODS THEREOF FOR TREATING DISEASES, DISORDERS, AND CONDITIONS RELATING TO ABERRANT FUNCTION OF A SODIUM CHANNEL” (Praxis Precision Medicines, Inc., priority 2016, published 2023):

Biological target: T1, human NaV1.6 (hNaV1.6) (Homo sapiens, UniProt Q9UQD0)
T1 construct: expressed in transfected cells; host or cells: HEK-293 (G418 selection)
Test: Modulation of late sodium current (INaL), PatchXpress electrophysiology
Assay type: cell-based
Conditions: HEK293, read-out: INaL v1.6 (1 µM, % Inhibition)
Protocol: Functional characterization of exemplary compounds to modulate INaL expressed by the NaV1.6 voltage-gated sodium channel was accomplished using the PatchXpressTM high throughput electrophysiology platform (Molecular Devices, Sunnyvale, CA). HEK-293 cells expressing recombinant, human NaV1.6 (hNaV1.6)were grown in DMEM/high-glucose Dulbecco's modified, 10% FBS, 2 mM sodium pyruvate, 10 mM HEPES and 400 μg/mL G418. Cells were grown to 50% - 80% confluency prior to harvesting. Trypsinized cells were washed, allowed to recover for 1 hour and then resuspended in extracellular recording solution at a concentration of 1 × 10^6 cells/ml. The onboard liquid handling facility of the PatchXpress was used for dispensing cells and applying test compounds. Nav late currents were evoked by the application of 300 nM ATX-II. […] INaL amplitude and stability were determined by analyzing the mean current amplitude over the final 20 ms of […] pulse. […] Percent steady-state inhibition of INaL was calculated as: [([…])]*100, where INaL_compound and INaL _control represent INaL recorded in the presence or absence of compound, respectively.

T1 sequence (Q9UQD0 whole entry): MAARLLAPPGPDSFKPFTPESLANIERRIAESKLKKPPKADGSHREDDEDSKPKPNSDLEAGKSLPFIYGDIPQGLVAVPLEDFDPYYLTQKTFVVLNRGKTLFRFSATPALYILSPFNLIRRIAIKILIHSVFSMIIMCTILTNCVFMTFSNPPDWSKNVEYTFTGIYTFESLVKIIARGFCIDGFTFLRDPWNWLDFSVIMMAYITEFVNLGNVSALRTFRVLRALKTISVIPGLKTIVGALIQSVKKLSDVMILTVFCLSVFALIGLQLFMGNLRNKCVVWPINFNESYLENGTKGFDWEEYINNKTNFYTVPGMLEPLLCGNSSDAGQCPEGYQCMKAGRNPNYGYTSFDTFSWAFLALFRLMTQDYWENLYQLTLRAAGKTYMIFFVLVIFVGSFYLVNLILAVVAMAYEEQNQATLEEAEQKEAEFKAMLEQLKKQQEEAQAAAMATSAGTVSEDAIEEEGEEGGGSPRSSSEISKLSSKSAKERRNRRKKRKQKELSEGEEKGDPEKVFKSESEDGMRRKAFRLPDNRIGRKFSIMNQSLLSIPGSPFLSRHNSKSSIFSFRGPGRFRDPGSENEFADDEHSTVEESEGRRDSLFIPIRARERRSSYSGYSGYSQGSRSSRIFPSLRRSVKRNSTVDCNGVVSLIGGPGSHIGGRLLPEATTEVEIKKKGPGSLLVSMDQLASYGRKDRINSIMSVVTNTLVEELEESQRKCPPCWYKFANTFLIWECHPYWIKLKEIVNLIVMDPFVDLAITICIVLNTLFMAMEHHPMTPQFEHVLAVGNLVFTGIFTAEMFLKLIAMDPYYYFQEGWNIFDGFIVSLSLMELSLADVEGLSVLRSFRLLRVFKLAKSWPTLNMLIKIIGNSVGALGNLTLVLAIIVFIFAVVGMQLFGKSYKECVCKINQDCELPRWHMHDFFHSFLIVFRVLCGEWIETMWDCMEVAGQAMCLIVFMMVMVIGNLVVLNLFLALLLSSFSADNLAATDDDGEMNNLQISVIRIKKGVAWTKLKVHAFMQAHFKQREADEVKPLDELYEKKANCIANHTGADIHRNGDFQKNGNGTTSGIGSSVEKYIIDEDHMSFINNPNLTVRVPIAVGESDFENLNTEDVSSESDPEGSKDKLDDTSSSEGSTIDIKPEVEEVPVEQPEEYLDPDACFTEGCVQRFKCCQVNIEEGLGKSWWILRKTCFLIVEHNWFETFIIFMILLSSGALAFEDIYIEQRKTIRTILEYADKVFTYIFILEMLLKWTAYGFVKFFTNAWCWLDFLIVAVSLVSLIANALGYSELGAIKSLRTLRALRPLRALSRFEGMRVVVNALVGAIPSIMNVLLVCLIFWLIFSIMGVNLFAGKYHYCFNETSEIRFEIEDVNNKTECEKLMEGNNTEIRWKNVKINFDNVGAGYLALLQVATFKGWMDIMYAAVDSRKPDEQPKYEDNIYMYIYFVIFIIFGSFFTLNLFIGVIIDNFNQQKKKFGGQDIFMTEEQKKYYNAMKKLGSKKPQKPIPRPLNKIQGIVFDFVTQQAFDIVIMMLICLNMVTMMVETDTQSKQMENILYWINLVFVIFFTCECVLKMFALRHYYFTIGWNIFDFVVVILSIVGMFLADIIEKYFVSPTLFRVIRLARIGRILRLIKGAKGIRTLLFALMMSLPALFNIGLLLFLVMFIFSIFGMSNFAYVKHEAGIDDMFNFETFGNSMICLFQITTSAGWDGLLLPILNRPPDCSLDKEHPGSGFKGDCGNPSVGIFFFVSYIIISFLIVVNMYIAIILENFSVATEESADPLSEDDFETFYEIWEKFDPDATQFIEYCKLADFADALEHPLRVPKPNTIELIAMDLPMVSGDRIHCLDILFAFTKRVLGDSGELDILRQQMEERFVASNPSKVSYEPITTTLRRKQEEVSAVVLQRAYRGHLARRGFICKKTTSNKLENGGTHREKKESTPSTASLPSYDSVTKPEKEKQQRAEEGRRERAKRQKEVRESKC

Row | Compound | inhibition at 1 µM
1 | COCc1cc(OC(F)(F)F)ccc1-c1cnc2cnc(C(F)(F)F)n2c1 [Compound 12] | 30 to 70%
2 | FC(F)(F)c1ccc(-c2cnc3cnc(C(F)(F)F)n3c2)cc1 [Compound 18] | < 30%
3 | N#Cc1nc(C(F)(F)F)n2cc(-c3ccc(OCC(F)(F)F)nc3)ccc12 [Compound 19] | > 70%
4 | N#Cc1nc(C(F)(F)F)n2cc(-c3ccc(C4(C#N)CC4)cc3)ccc12 [Compound 20] | < 30%
5 | N#Cc1nc(C(F)F)n2cc(-c3ccc(OC(F)(F)F)cc3)ccc12 [Compound 21] | 30 to 70%
6 | Fc1cc(-c2cn3c(C(F)(F)F)ncc3cn2)cnc1OCC(F)(F)F [Compound 23, 6-[5-fluoro-6-(2,2,2-trifluoroethoxy)-3-pyridyl]-3-(trifluoromethyl)imidazo[1,5-a]pyrazine] | 30 to 70%
7 | FC1(F)CC(c2ncc3ncc(-c4ccc(OC(F)(F)F)cc4)cn23)C1 [Compound 24] | < 30%

Same assay, conditions: HEK293; 1 µM compound; HEK-293 cells expressing hNaV1.6; late current evoked by 300 nM ATX-II; read-out: INaL v1.6 (1 µM, % Inhibition)

Row | Compound | inhibition at 1 µM
8 | COc1cc(OC(F)(F)F)ccc1-c1ccc2cnc(C(F)(F)F)n2c1 [Compound 1] | > 70%
9 | FC(F)(F)COc1ccc(-c2ccc3cnc(C(F)(F)F)n3c2)cn1 [Compound 2] | 30 to 70%
10 | COC(C)(C)c1ccc(-c2ccc3cnc(C(F)(F)F)n3c2)cc1 [Compound 3] | 30 to 70%
11 | N#CC1(c2ccc(-c3ccc4cnc(C(F)(F)F)n4c3)cc2)CC1 [Compound 4] | 30 to 70%
12 | FC(F)(F)Oc1ccc(-c2cn3c(C(F)(F)F)ncc3cn2)cc1 [Compound 7] | 30 to 70%
13 | FC(F)(F)Oc1ccc(-c2cnc3cnc(C(F)(F)F)n3c2)cc1 [Compound 8] | 30 to 70%
14 | FC(F)(F)Oc1ccc(-c2ccc3cnc(C(F)(F)F)n3n2)cc1 [Compound 9] | 30 to 70%
15 | FC(F)c1ncc2ncc(-c3ccc(OC(F)(F)F)cc3)cn12 [Compound 10] | < 30%

Continued, values first:

Row | inhibition at 1 µM | Compound
16 | < 30% | N#Cc1nc(C(F)(F)F)n2cc(-c3ccc(OC(F)(F)F)cc3)cnc12 [Compound 11]
17 | < 30% | N#CC1(c2ccc(-c3cnc4cnc(C(F)(F)F)n4c3)cc2)CC1 [Compound 13]
18 | 30 to 70% | Cc1nc(C(F)(F)F)n2cc(-c3ccc(OC(F)(F)F)cc3)cnc12 [Compound 14]
19 | > 70% | COCc1cc(OC(F)(F)F)ccc1-c1cn2c(C(F)(F)F)ncc2cn1 [Compound 15]
20 | > 70% | COCc1cc(OC(F)(F)F)ccc1-c1ccc2c(C#N)nc(C(F)(F)F)n2c1 [Compound 16]
21 | < 30% | COc1cc(C2(C#N)CC2)ccc1-c1cnc2cnc(C(F)(F)F)n2c1 [Compound 17]
22 | 30 to 70% | N#CC1(c2ccc(-c3cn4c(C(F)(F)F)ncc4cn3)cc2)CC1 [Compound 22]
23 | < 30% | N#Cc1nc(C(F)(F)F)n2nc(-c3ccc(OC(F)(F)F)cc3)ccc12 [Compound 25]
24 | 30 to 70% | FC(F)(F)Oc1ccc(-c2ccc3cnc(C4CC4(F)F)n3c2)cc1 (stereo not shown) [Compound 26]
25 | > 70% | N#Cc1nc(C(F)(F)F)n2cc(-c3ccc(OC(F)(F)F)cc3)ncc12 [Compound 27]
26 | > 70% | COCc1cc(OC(F)(F)F)ccc1-c1cn2c(C(F)(F)F)nc(C#N)c2cn1 [Compound 28]
27 | > 70% | N#Cc1nc(C(F)(F)F)n2cc(-c3ccc(C(F)(F)F)cc3)ncc12 [Compound 29]
28 | > 70% | N#Cc1nc(C2CC2(F)F)n2cc(-c3ccc(OC(F)(F)F)cc3)ccc12 (stereo not shown) [Compound 30]
29 | 30 to 70% | N#Cc1nc(C(F)(F)F)n2cc(-c3cnc(OCC(F)(F)F)c(F)c3)ncc12 [Compound 31, 6-[5-fluoro-6-(2,2,2-trifluoroethoxy)-3-pyridyl]-3-(trifluoromethyl)imidazo[1,5-a]pyrazine-1-carbonitrile]
30 | 30 to 70% | Fc1cc(-c2cnc3cnc(C(F)(F)F)n3c2)cnc1OCC(F)(F)F [Compound 32, 3-[5-fluoro-6-(2,2,2-trifluoroethoxy)-3-pyridyl]-6-(trifluoromethyl)imidazo[1,5-a]pyrimidine]
31 | > 70% | N#Cc1nc(C(F)(F)F)n2cc(-c3cnc(OCC(F)(F)F)c(F)c3)ccc12 [Compound 33, 6-[5-fluoro-6-(2,2,2-trifluoroethoxy)-3-pyridyl]-3-(trifluoromethyl)imidazo[1,5-a]pyridine-1-carbonitrile]
